Experiments:
[1] = molecular target: T1, CYP3A4 (Homo sapiens, UniProt P08684); assay: Cytochrome P450 inhibition assay (midazolam hydroxylation); assay type: in vitro ADME; conditions: human, human liver microsomes, probe midazolam (hydroxylation to 1′-hydroxymidazolam), 10 μM test compound, midazolam at approximately its Km
T1 construct: pre-incubated with human liver microsomes and NADPH; from tissue; host or cells: human liver microsomes
Method: Compounds were tested for the potential to induce drug-drug interactions by inhibition of the cytochrome P450 3A4 isoform. The assay evaluated the metabolism of a specific marker substrate (CYP3A4, midazolam hydroxylation to 1′-hydroxymidazolam) in the presence or absence of 10 μM test compound. The concentration of the marker substrate was approximately its Km (Dixit et al., Biopharm. Drug Dispos. 2007, 28(5), 257-262). A specific inhibitor for the isoform was included in each run to validate the system. An appropriate positive control inhibitor was used. Mechanism-based inhibition was investigated where warranted using a classical method. To evaluate time-dependent inhibition, parallel samples may have been included where […] was pre-incubated with human liver microsomes and NADPH for 30 min prior to the addition of the P450 substrate. The percent inhibition of the pre-incubated and non-pre-incubated samples were compared as a preliminary evaluation of time-dependent inhibition.

[2] = molecular target: T2, OX1 (Homo sapiens, UniProt O43613); assay: Orexin receptor cell-based functional assay, [Ca2+]i by FLIPR, CHO-OX1 cells; conditions: CHO-OX1 cells, [Ca2+]i by FLIPR, antagonist dose-range 0.1 nM-10 μM, EC90 of OXA; read-out: OX1
T2 construct: expressed in transfected cells; host or cells: CHO (CHO-OX1, kept under selection antibiotic)
T2 sequence (O43613 1-425): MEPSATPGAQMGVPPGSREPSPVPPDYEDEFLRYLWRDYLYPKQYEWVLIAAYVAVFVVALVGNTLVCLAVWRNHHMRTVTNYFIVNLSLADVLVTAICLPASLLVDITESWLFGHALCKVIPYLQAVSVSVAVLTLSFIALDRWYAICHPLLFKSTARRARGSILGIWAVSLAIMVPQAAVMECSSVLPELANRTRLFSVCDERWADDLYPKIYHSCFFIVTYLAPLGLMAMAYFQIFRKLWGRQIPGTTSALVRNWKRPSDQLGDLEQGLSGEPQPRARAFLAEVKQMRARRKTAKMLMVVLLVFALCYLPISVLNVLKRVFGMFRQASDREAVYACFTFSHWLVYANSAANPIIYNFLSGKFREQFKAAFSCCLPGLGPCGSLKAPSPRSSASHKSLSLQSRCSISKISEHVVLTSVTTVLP
Summary of the method: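 Antagonist mode FLIPR calcium read in CHO-OX1 and CHO-OX2 lines. Test compounds, dosed 0.1 nM-10 μM, preincubated 30 min after 37° C dye loading with 2.5 mM probenecid (calcium4 for 30 min or calcium6 for 2 h).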

T1 sequence (P08684 whole entry): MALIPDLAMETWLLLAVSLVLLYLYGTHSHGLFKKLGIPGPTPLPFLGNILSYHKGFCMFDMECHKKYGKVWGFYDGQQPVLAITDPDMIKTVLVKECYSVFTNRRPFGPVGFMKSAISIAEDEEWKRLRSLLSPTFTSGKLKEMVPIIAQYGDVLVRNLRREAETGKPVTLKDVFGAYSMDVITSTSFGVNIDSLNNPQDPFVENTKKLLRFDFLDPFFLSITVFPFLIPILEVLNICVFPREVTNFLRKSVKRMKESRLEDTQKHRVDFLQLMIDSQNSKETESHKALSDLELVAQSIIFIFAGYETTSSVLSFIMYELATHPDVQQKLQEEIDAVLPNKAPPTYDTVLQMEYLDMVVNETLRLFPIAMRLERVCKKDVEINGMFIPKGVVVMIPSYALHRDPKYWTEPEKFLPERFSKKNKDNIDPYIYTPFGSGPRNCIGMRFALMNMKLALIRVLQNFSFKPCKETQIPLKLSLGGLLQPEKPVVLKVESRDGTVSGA

| Structure (SMILES) | inhibition at 10 µM [1] [%] | IC50 [2] [nM] |
| --- | --- | --- |
| Cc1nc(C(=O)N2CCCC(C)C2CNc2ncc(C(F)(F)F)cn2)c(-c2ccc(F)cc2)s1 (racemic) [Example A311, (+/−)-cis-(5-(4-Fluorophenyl)-2-methylthiazol-4-yl)(3-methyl-2-(((5-(trifluoromethyl)pyrimidin-2-yl)amino)methyl)piperidin-1-yl)methanone] | 57 | – |
| COc1ncc(-c2ccc(C)cc2C(=O)N2CCC[C@@H](C)[C@H]2CNc2ccc(C(F)(F)F)cn2)cn1 [Example A4, (2-(2-Methoxypyrimidin-5-yl)-5-methylphenyl)((2S,3R)-3-methyl-2-(((5-(trifluoromethyl)pyridin-2-yl)amino)methyl)piperidin-1-yl)methanone] | 96 | – |
| Cc1ccc(-c2c(C)noc2C)c(C(=O)N2CCC[C@@H](C)[C@H]2CNc2ccc(C(F)(F)F)cn2)c1 [Example A7, (2-(3,5-Dimethylisoxazol-4-yl)-5-methylphenyl)((2S,3R)-3-methyl-2-(((5-(trifluoromethyl)pyridin-2-yl)amino)methyl)piperidin-1-yl)methanone] | 93 | – |
| Cc1nc(C(=O)N2CCC[C@@H](C)[C@H]2CNc2nc3cc(F)ccc3o2)c(-c2ccc(F)cc2)s1 [Example A15, ((2S,3R)-2-(((5-Fluorobenzo[d]oxazol-2-yl)amino)methyl)-3-methylpiperidin-1-yl) (5-(4-fluorophenyl)-2-methylthiazol-4-yl)methanone] | 78 | – |
| Cc1ccc(-c2cncs2)c(C(=O)N2CCC[C@@H](C)[C@H]2CNc2ccc(C(F)(F)F)cn2)c1 [Example A25, ((2S,3R)-3-Methyl-2-(((5-(trifluoromethyl)pyridin-2-yl)amino)methyl)piperidin-1-yl)(5-methyl-2-(thiazol-5-yl)phenyl)methanone] | 99 | – |
| Cc1ccc(-c2cncn2C)c(C(=O)N2CCC[C@@H](C)[C@H]2CNc2ccc(C(F)(F)F)cn2)c1 [Example A26, ((2S,3R)-3-Methyl-2-(((5-(trifluoromethyl)pyridin-2-yl)amino)methyl)piperidin-1-yl)(5-methyl-2-(1-methyl-1H-imidazol-5-yl)phenyl)methanone] | 99 | – |
| Cc1ccc(-c2ccnc(C)n2)c(C(=O)N2CCC[C@@H](C)[C@H]2CNc2nc3cc(Cl)ccc3o2)c1 [Example A27, ((2S,3R)-2-(((5-Chlorobenzo[d]oxazol-2-yl)amino)methyl)-3-methylpiperidin-1-yl)(5-methyl-2-(2-methylpyrimidin-4-yl)phenyl)methanone] | 95 | – |
| Cc1ccc(-n2cncn2)c(C(=O)N2CCC[C@@H](C)[C@H]2CNc2nc3cc(Cl)ccc3o2)c1 [Example A28, ((2S,3R)-2-(((5-Chlorobenzo[d]oxazol-2-yl)amino)methyl)-3-methylpiperidin-1-yl)(5-methyl-2-(1H-1,2,4-triazol-1-yl)phenyl)methanone] | 95 | – |
| Cc1ccc(-c2nccs2)c(C(=O)N2CCC[C@@H](C)[C@H]2CNc2nc3cc(Cl)ccc3o2)c1 [Example A30, ((2S,3R)-2-(((5-Chlorobenzo[d]oxazol-2-yl)amino)methyl)-3-methylpiperidin-1-yl)(5-methyl-2-(thiazol-2-yl)phenyl)methanone] | 97 | – |
| Cc1ccc(-c2cccnc2)c(C(=O)N2CCC[C@@H](C)[C@H]2CNc2nc3cc(Cl)ccc3o2)c1 [Example A31, ((2S,3R)-2-(((5-Chlorobenzo[d]oxazol-2-yl)amino)methyl)-3-methylpiperidin-1-yl)(5-methyl-2-(pyridin-3-yl)phenyl)methanone] | 98 | – |
| Cc1ccc(-c2ccccn2)c(C(=O)N2CCC[C@@H](C)[C@H]2CNc2nc3cc(Cl)ccc3o2)c1 [Example A32, ((2S,3R)-2-(((5-Chlorobenzo[d]oxazol-2-yl)amino)methyl)-3-methylpiperidin-1-yl)(5-methyl-2-(pyridin-2-yl)phenyl)methanone] | 92 | – |
| Cc1ccc(-n2ccnc2)c(C(=O)N2CCC[C@@H](C)[C@H]2CNc2nc3cc(Cl)ccc3o2)c1 [Example A33, (2-(1H-Imidazol-1-yl)-5-methylphenyl)((2S,3R)-2-(((5-chlorobenzo[d]oxazol-2-yl)amino)methyl)-3-methylpiperidin-1-yl)methanone] | 98 | – |
| Cc1ccc(-c2cccnc2)c(C(=O)N2CCC[C@@H](C)[C@H]2CNc2ncc(Cl)cn2)n1 [Example A222, ((2S,3R)-2-(((5-Chloropyrimidin-2-yl)amino)methyl)-3-methylpiperidin-1-yl)(6-methyl-[3,3′-bipyridin]-2-yl)methanone] | – | 82 |
| Cc1ccc(-c2cccnc2)c(C(=O)N2CCC[C@@H](C)[C@H]2CNc2ccc(Cl)cn2)n1 [Example A224] | – | 13 |
| C[C@@H]1CCCN(C(=O)c2nccc3ccccc23)[C@@H]1CNc1ncc(Cl)cn1 [Example A225, ((2S,3R)-2-(((5-Chloropyrimidin-2-yl)amino)methyl)-3-methylpiperidin-1-yl)(isoquinolin-1-yl)methanone] | – | 340 |
| C[C@@H]1CCCN(C(=O)c2c(-c3ncccn3)ccc(F)c2F)[C@@H]1CNc1ncc(C(F)(F)F)cn1 [Example A389, (2,3-Difluoro-6-(pyrimidin-2-yl)phenyl)((2S,3R)-3-methyl-2-(((5-(trifluoromethyl)pyrimidin-2-yl)amino)methyl)piperidin-1-yl)methanone] | – | 5 |

More lines, now with the values ahead:

| inhibition at 10 µM [1] [%] | IC50 [2] [nM] | Structure (SMILES) |
| --- | --- | --- |
| 72 | – | Cc1ccc(C#N)c(C(=O)N2CCC[C@@H](C)[C@H]2CNc2ccc(C(F)(F)F)cn2)c1 [Example A22, 4-Methyl-2-((2S,3R)-3-methyl-2-(((5-(trifluoromethyl)pyridin-2-yl)amino)methyl)piperidine-1-carbonyl)benzonitrile] |
| – | 150 | Cc1ccc(-c2ccccn2)c(C(=O)N2CCC[C@@H](C)[C@H]2CNc2ccc(C(F)(F)F)cn2)n1 [Example A217, ((2S,3R)-3-Methyl-2-(((5-(trifluoromethyl)pyridin-2-yl)amino)methyl)piperidin-1-yl)(6′-methyl-[2,3′-bipyridin]-2′-yl)methanone] |
| – | 58 | C[C@@H]1CCCN(C(=O)c2ccc(F)cc2-n2nccn2)[C@@H]1CNc1ncc(C(F)(F)F)cn1 [Example A251, (4-Fluoro-2-(2H-1,2,3-triazol-2-yl)phenyl)((2S,3R)-3-methyl-2-(((5-(trifluoromethyl)pyrimidin-2-yl)amino)methyl)piperidin-1-yl)methanone] |
| – | 14 | Cc1ccc(C(=O)N2CCC[C@@H](C)[C@H]2CNc2ncc(C(F)(F)F)cn2)c(-n2nccn2)c1 [Example A272, ((2S,3R)-3-Methyl-2-(((5-(trifluoromethyl)pyrimidin-2-yl)amino)methyl)piperidin-1-yl)(4-methyl-2-(2H-1,2,3-triazol-2-yl)phenyl)methanone] |
| – | 6 | Cc1ccc(C(=O)N2CCC[C@@H](C)[C@H]2CNc2ccc(C(F)(F)F)cn2)c(-n2nccn2)c1 [Example A273, ((2S,3R)-3-Methyl-2-(((5-(trifluoromethyl)pyridin-2-yl)amino)methyl)piperidin-1-yl)(4-methyl-2-(2H-1,2,3-triazol-2-yl)phenyl)methanone] |
| – | 10 | C[C@@H]1CCCN(C(=O)c2c(-n3nccn3)ccc(F)c2F)[C@@H]1CNc1ccc(C(F)(F)F)cn1 [Example A336, (2,3-Difluoro-6-(2H-1,2,3-triazol-2-yl)phenyl)((2S,3R)-3-methyl-2-(((5-(trifluoromethyl)pyridin-2-yl)amino)m*ethyl)piperidin-1-yl)methanone] |
| – | 9 | C[C@@H]1CCCN(C(=O)c2c(-n3nccn3)ccc(F)c2F)[C@@H]1CNc1ncc(C(F)(F)F)cn1 [Example A337, (2,3-Difluoro-6-(2H-1,2,3-triazol-2-yl)phenyl)((2S,3R)-3-methyl-2-(((5-(trifluoromethyl)pyrimidin-2-yl)amino)methyl)piperidin-1-yl)methanone] |
| – | 5 | COc1ccc(-n2nccn2)c(C(=O)N2CCC[C@@H](C)[C@H]2CNc2ncc(C(F)(F)F)cn2)c1F [Example A339, (2-Fluoro-3-methoxy-6-(2H-1,2,3-triazol-2-yl)phenyl)((2S,3R)-3-methyl-2-(((5-(trifluoromethyl)pyrimidin-2-yl)amino)methyl)piperidin-1-yl)methanone] |
| – | 19 | Cc1c(F)ccc(-n2nccn2)c1C(=O)N1CCC[C@@H](C)[C@H]1CNc1ccc(C(F)(F)F)cn1 [Example A384, (3-Fluoro-2-methyl-6-(2H-1,2,3-triazol-2-yl)phenyl)((2S,3R)-3-methyl-2-(((5-(trifluoromethyl)pyridin-2-yl)amino)methyl)piperidin-1-yl)methanone] |
